# Experimental data: paper PMC9449155 (Brazilian Journal of Otorhinolaryngology, 2017)
# What was measured:
# MRSA = assay: Inhibition zone assay; assay type: cell-based, Methicillin-resistant Staphylococcus aureus; conditions: 37 °C overnight
# Method: MRSA was grown overnight for 18 h at 37 °C in 10 mL of LB broth and then 10 μL of this culture was inoculated into 10 mL of fresh LB and incubated for an additional 3 h at 37 °C to obtain mid-logarithmic phase organisms. The bacterial suspension (2 × 10^5 CFU/mL in LB) was mixed with 0.7% agarose and poured into a 10 cm Petri dish. […] The diameters of the bacterial clearance zones surrounding the circle paper were measured for the quantitation of inhibitory activities.
# [1] = laboratory experiments and clinical studies; cited from earlier work
# From the text: (§1) Fishman et al. reported that in a large review of patients with culture-positive, persistent tympanostomy tube otorrhea, S. aureus accounted for 52% of the organisms cultured, of which 57% were MRSA.[20] Presently, the most commonly used antibiotic against MRSA is vancomycin. […] Although there is no emergence of VRSA in CSOM, new anti-MRSA peptides need to be studied for the prevention of VRSA or VISA. Mandal et al. reported that approximately 15% of MRSA ...
# guinea pigs = conditions: guinea pig, in vivo; cited from earlier work
# From the text: as §1
# [2] = paper disc on agarose plate, MRSA, zone size dose-dependent (Fig. 2)
compound,measurement,setting,value
KRIVQRIKKWLR-NH2 [KR-12-a2],amount from which an inhibition zone against MRSA was produced,"MRSA; 10 μL aliquots of serial dilution on ≈6 mm paper discs, MRSA 2 × 10^5 CFU/mL in LB with 0.7% agarose",6.25 µg
same,amount giving the highest mean diameter of the inhibition zone,MRSA; [2],100 µg
same,amount giving the lowest mean diameter of the inhibition zone,MRSA; [2],6.25 µg
CN[C@H](CC(C)C)C(=O)N[C@H]1C(=O)N[C@@H](CC(N)=O)C(=O)N[C@H]2C(=O)N[C@H]3C(=O)N[C@H](C(=O)N[C@H](C(=O)O)c4cc(O)cc(O)c4-c4cc3ccc4O)[C@H](O)c3ccc(c(Cl)c3)Oc3cc2cc(c3O[C@@H]2O[C@H](CO)[C@@H](O)[C@H](O)[C@H]2O[C@H]2C[C@](C)(N)[C@H](O)[C@H](C)O2)Oc2ccc(cc2Cl)[C@H]1O [vancomycin],ototoxicity after vancomycin treatment,[1],did not demonstrate significant ototoxicity
daptomycin,ototoxicity after topical application,guinea pigs,no ototoxicity
